“Also recorded” adds a separate entry of the source. Read-outs that look alike come from different tables or passages of the source. Each block holds one molecule with its values, some of them ahead of it.
Assays:
[1] = tested on: healthy volunteers; settings: cited from earlier work
[2] = tested on: C57BL/6J mice on HF/NASH diet; experiment: Drug treatment study in mice on HF/NASH diet (Example 1); type: in vivo
Procedure: Studies were performed in compliance with Swiss guidelines for animal experimentation. Adult male C57BLJ6J mice were housed with ad libitum access to water and food. Mice were fed a HF/NASH diet (40 kcal % fat, 2% cholesterol, 40 kcal % carbohydrate, Research Diets, D09100301 or SSniff Special Diets, supplemented with a fructose-sucrose solution (42 g/L, 55% fructose and 45% sucrose by weight) in drinking water).
Total body fat and lean mass were analyzed by a nuclear magnetic resonance (NMR) and liver fat was measured by magnetic resonance imaging (MRI). […] Dietary intervention studies: mice fed a HF/NASH diet for 8 weeks were switched to normal diet (ND and water) for 12 weeks.
Drug treatment studies: mice exposed to HF/NASH diet for 20 weeks were treatment with LJP305 (1 mg/kg), GS-0976 (10 mg/kg) or vehicle (0.5% methylcellulose, 0.5% Tween 80 in water) p.o. once daily for 12 weeks while remaining on HF/NASH diet. At the end of the studies, blood and tissue samples were collected for analyses.
Liver samples were analyzed for collagen (Quickzyme), lipids and triglycerides (Cayman). Relative gene expression was calculated by normalizing Ct values of genes of interest against 18s (liver) or Idh3b (fat, ileum). Serum TIMP-1 (R&D Systems Inc.), PIII-NP (N-terminal procollagen III propeptide) (Cusabio Biotech Co.), α-fetoprotein (R&D Systems Inc.), leptin, and adiponectin (Meso Scale Discovery) were measured.
Paraffin-embedded tissue was stained with hematoxylin/eosin (H&E) and picrosirius red. IBA1 (ionized calcium-binding adapter molecule 1)-positive crown-like structures (Abcam, ab178846), Ly6b (BioRad, MCA771), UCP-1 (Abcam, ab109839) or ZO-1 (Invitrogen, 14-9776-80) were stained (Ventana Discovery XT) followed by digital (Aperio ScanScope XT, Leica Biosystems) and automated image analysis (HALO, Indica Labs).

[3] = tested on: NASH patients; settings: cited from earlier work
[4] = tested on: patients with biopsy-proven NASH and fibrosis stages 2-3
Text: Prespecified endpoints assessed at week 12 included overall safety and changes in alanine aminotransferase (ALT), hepatic fat fraction (HFF), gamma glutamyl transferase (GGT), and body weight.

[5] = tested on: NASH patients
[6] = tested on: NASH patients; settings: cited from earlier work; remark: listed apart in the source
[7] = GS-0976 10 mg/kg p.o. once daily for 12 weeks, HF/NASH diet

Compound: COc1cc(C(=O)N2CCC3(CC2)CC(=O)c2cc(-c4cncc(C(=O)O)c4)ccc2O3)cc2c1c(C)cn2C1CC1 [MK-4704]
- plasma triglycerides [1]: Hypertriglyceridemia

- elevation of circulating leptin levels vs vehicle [2, 7]: 2 fold
- increase in total fat mass vs vehicle [2, 7]: 27%
- increase in visceral and subcutaneous fat vs vehicle [2, 7]: 30%
Compound: COc1ccccc1[C@H](Cn1c(=O)n(C(C)(C)C(=O)O)c(=O)c2c(C)c(-c3ncco3)sc21)OC1CCOCC1 [GS-0976, 2-[1-{(2R)-2-(2-methoxyphenyl)-2-[(oxan-4-yl)oxy]ethyl}-5-methyl-6-(1,3-oxazol-2-yl)-2,4-dioxo-1,4-dihydrothieno[2,3-d]pyrimidin-3(2H)-yl]-2-methylpropanoic acid]
- mean body weight above vehicle-treated mice ([2]; GS-0976 10 mg/kg p.o. once daily, end of 12-week treatment, HF/NASH diet): 7%
- liver gene expression (lipid metabolism genes) ([2]; GS-0976 10 mg/kg, liver transcriptome): induced multiple genes known to play roles in lipid metabolism
- effect on blood triglycerides and peripheral obesity ([2]; NASH mice, 12-week treatment): elevated blood triglycerides and peripheral obesity
- body weight effect (in words) ([2]; chronic treatment, HF/NASH diet, vs vehicle): significant increase in body weight
- effect of therapeutic treatment on established NASH with fibrosis ([2]; p.o. once daily for 12 weeks after 20 weeks of HF/NASH diet): resolved established NASH with fibrosis
- plasma triglycerides (TG) ([3]; NASH patients): Hypertriglyceridemia; also recorded: elevated plasma triglycerides
- steatosis and MRI-PDFF in NASH subjects ([3]; NASH subjects): improve steatosis and improvements in MRI-PDFF
- liver fat, serum TIMP-1 and liver injury ([3]; clinical phase 2 NASH studies, 12 weeks): reductions in liver fat, serum TIMP-1, and liver injury

Compound: O=C(O)c1cc(F)c2nc(N3C4CCC3CC(OCc3c(-c5ccccc5OC(F)(F)F)noc3C3CC3)C4)sc2c1 [Tropifexor, 2-[(1R,3r,5S)-3-({5-cyclopropyl-3-[2-(trifluoromethoxy)phenyl]-1,2-oxazol-4-yl}methoxy)-8-azabicyclo[3.2.1]octan-8-yl]-4-fluoro-1,3-benzothiazole-6-carboxylic acid]
- frequency of serious adverse events ([4]; 140 μg and 200 μg vs placebo): low and comparable across groups
- low density lipoprotein-cholesterol (LDL-C) ([4]; 140 μg and 200 μg, 12 weeks): dose-related increase
- treatment discontinuation rate due to pruritus ([4]; Tropifexor 140 μg): 2%
- ALT, LS mean absolute change (SE) from baseline to Week 12 ([4]; Tropifexor 140 μg once daily): −20.1 (4.57) U/L
- Body weight, LS mean absolute change (SE) from baseline to Week 12 ([4]; Tropifexor 140 μg once daily): −2.46 (0.38) kg
- GGT, LS mean absolute change (SE) from baseline to Week 12 ([4]; Tropifexor 140 μg once daily): −39.2 (3.70) U/L
- pre-specified endpoints at week 12 ([4]; Tropifexor 200 μg): Pre-specified endpoints were met
- treatment discontinuation rate due to pruritus ([4]; Tropifexor 200 μg): 6%
- ALT, LS mean absolute change (SE) from baseline to Week 12 ([4]; Tropifexor 200 μg once daily): −23.6 (4.48) U/L
- Body weight, LS mean absolute change (SE) from baseline to Week 12 ([4]; Tropifexor 200 μg once daily): −3.20 (0.37) kg
- GGT, LS mean absolute change (SE) from baseline to Week 12 ([4]; Tropifexor 200 μg once daily): −40.9 (3.62) U/L
- share of patients with pruritus whose events were of mild (Grade 1) severity ([4]; both Tropifexor groups (140 μg and 200 μg)): > 60%
- ALT, HFF and body weight after 12 weeks (in words) ([4]; higher doses (140 μg and 200 μg)): robust and dose-dependent decreases
- efficacy based on biomarkers at Week 12 ([5]; 60 and 90 μg): anti-inflammatory and anti-steatotic efficacy
- tolerability ([5]; up to 90 μg daily): generally well tolerated up to 90 μg daily without safety signals

Compound: CC[C@H]1[C@@H](O)[C@@H]2[C@H](CC[C@]3(C)[C@@H]([C@H](C)CCC(=O)O)CC[C@@H]23)[C@@]2(C)CC[C@@H](O)C[C@@H]12 [obeticholic acid, 6α-ethyl-chenodeoxycholic acid]
- adverse effects of long term administration [6]: associated with pruritus and lipid abnormalities

Source: US20220347190A1, “TREATMENT COMPRISING FXR AGONISTS” (Novartis AG, priority 2019, published 2022)
